Data taken from US9399626B2, “2-thiopyrimidinones” (Pfizer Inc., priority 2011, dated 2016).
Where a name gives a salt, the structure may show the parent alone.

biological target: T1, MPO (purified from human polynuclear leukocytes) (Homo sapiens, UniProt P05164); test: MPO Amplex Red Activity Assay; type: biochemical; conditions: Table 1, 2 μM H2O2, pH 7.4
T1 construct: purified from human polynuclear leukocytes; purchased Calbiochem/EMD Biosciences; host or cells: human polynuclear leukocytes (natural source)
T1 sequence (P05164 279-745 limits assumed): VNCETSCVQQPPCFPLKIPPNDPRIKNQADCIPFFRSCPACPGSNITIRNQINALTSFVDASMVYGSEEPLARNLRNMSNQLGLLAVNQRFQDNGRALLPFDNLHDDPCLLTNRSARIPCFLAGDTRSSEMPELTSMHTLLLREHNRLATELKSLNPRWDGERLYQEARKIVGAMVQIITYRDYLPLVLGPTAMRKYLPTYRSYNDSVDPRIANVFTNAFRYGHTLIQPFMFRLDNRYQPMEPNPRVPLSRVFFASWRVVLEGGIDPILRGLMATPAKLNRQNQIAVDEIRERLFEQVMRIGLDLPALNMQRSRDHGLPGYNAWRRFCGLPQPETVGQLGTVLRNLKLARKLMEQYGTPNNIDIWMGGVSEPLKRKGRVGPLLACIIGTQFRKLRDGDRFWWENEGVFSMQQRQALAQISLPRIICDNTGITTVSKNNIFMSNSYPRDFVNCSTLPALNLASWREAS
T1 sequence (P05164 165-273 limits assumed): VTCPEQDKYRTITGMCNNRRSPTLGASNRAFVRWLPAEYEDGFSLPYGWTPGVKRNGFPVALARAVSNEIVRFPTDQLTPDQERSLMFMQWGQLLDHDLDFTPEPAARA
Experimental: MPO Amplex Red Activity Assay.
MPO peroxidase activity was measured by monitoring the formation of resorufin generated from the oxidation of Amplex Red (10-Acetyl-3,7-dihydroxyphenoxazine) (Invitrogen, Carlsbad, Calif.) by MPO (Gomes, Fernandes et al. 2005). Assay mixtures (100 μL total volume) contained 50 mM NaPi pH 7.4, 150 mM NaCl, 1 mM DTPA (diethylenetriaminepentaacetic acid), 2% DMSO, 2 μM H2O2, 30 μM Amplex Red and the reaction was initiated by the addition of […] (purified from human polynuclear leukocytes and purchased from Calbiochem/EMD Biosciences, Gibbstown, N.J.). All assays were performed in 96-well, half-area, black, nonbinding surface, polystyrene plates (Corning) and the production of resorufin (excitation 530 nm, emission 580 nm) was monitored every 20 sec on a Spectramax M2 Microplate Spectrophotometer (Molecular Devices, Palo Alto, Calif.) equipped with Softmax Pro software (Molecular Devices, Palo Alto, Calif.). Reactions to determine the background reaction rate consisted of all assay components and 4 μL of 500 unit/mL bovine catalase (Sigma) in 50 mM KPi pH 7.0. The background rate was subtracted from each reaction progress curve. All data was analyzed using non-linear regression analysis in Microsoft Excel and Kaleidagraph (Synergy Software).
To determine inhibitor potency (kinact/KI) against MPO, the first 600 sec of the reaction progress curves were fit to equation 1, where Vo is the initial rate in RFU/sec and t is time in seconds, to obtain the first order rate constant for enzyme inactivation (kobs) at each inhibitor concentration.
[formula] Equation 1 is a variation of the standard equation for slow binding inhibition where the steady state velocity (Vs) is set to zero. Each kobs value was corrected for auto-inactivation of the enzyme by subtracting the kobs value for the uninhibited reaction. The corrected kobs values were then plotted versus inhibitor concentration ([I]) and fit to equation 2
[formula] where kinact is the maximal rate of inactivation and KI is the inhibitor concentration that yields half the rate of maximal inactivation (Copeland 2005).
Table 1 and (1A) below provides the myeloperoxidase inhibitory activity for the Examples below in accordance with the above-described assay.

Row | Structure (SMILES) | MPO kinact/Ki
1 | CNCCn1c(-c2ccc(OC)cc2OC)cc(=O)[nH]c1=S [Example 177, 6-(2,4-dimethoxyphenyl)-1-[2-(methylamino)ethyl]-2-thioxo-2,3-dihydropyrimidin-4(1H)-one formate] | 5130 1/s per M
2 | COc1ccc(Cl)cc1-c1cc(=O)[nH]c(=S)n1CCNC(=O)CN [Example 135, N-{2-[6-(5-chloro-2-methoxyphenyl)-4-oxo-2-thioxo-3,4-dihydropyrimidin-1(2H)-yl]ethyl} glycinamide hydrochloride] | 6750 1/s per M
3 | CNCCCn1c(-c2ccc(OC)cc2OC)cc(=O)[nH]c1=S [Example 192, 6-(2,4-dimethoxyphenyl)-1-[3-(methylamino)propyl]-2-thioxo-2,3-dihydropyrimidin-4(1H)-one hydrochloride] | 10800 1/s per M
4 | COc1ccc(-c2cc(=O)[nH]c(=S)n2CCOC(C)=O)c(OC)c1 [Example 222, 2-[6-(2,4-dimethoxyphenyl)-4-oxo-2-thioxo-3,4-dihydropyrimidin-1(2H)-yl]ethyl acetate] | 9820 1/s per M
5 | COc1ccc(-c2cc(=O)[nH]c(=S)n2CC(N)=O)c(OC)c1 [Example 174, 2-[6-(2,4-dimethoxyphenyl)-4-oxo-2-thioxo-3,4-dihydropyrimidin-1(2H)-yl]acetamide] | 10500 1/s per M
6 | COCCn1c(-c2ccc(S(=O)(=O)N(C)C)cc2)cc(=O)[nH]c1=S [Example 347, 4-[3-(2-methoxyethyl)-6-oxo-2-thioxo-1,2,3,6-tetrahydropyrimidin-4-yl]-N,N-dimethylbenzenesulfonamide] | 378 1/s per M
7 | COc1ccc(F)cc1-c1cc(=O)[nH]c(=S)n1CCCN=C(N)N [Example 126, 2-{3-[6-(5-fluoro-2-methoxyphenyl)-4-oxo-2-thioxo-3,4-dihydropyrimidin-1(2H)-yl]propyl} guanidine] | 18200 1/s per M
8 | COCCn1c(-c2ncc[nH]2)cc(=O)[nH]c1=S [Example 154, 6-(1H-imidazol-2-yl)-1-(2-methoxyethyl)-2-thioxo-2,3-dihydropyrimidin-4(1H)-one] | 1070 1/s per M
9 | COc1ccc(-c2cc(=O)[nH]c(=S)n2Cc2ncccn2)c(OC)c1 [Example 234, 6-(2,4-dimethoxyphenyl)-1-(pyrimidin-2-ylmethyl)-2-thioxo-2,3-dihydropyrimidin-4(1H)-one] | 3060 1/s per M
10 | COCCn1c(-c2cccc(OC(F)(F)F)c2)cc(=O)[nH]c1=S [Example 340] | 1450 1/s per M
11 | COCCn1c(-c2ccc(C)nc2OC)cc(=O)[nH]c1=S [Example 50, 1-(2-methoxyethyl)-6-(2-methoxy-6-methylpyridin-3-yl)-2-thioxo-2,3-dihydropyrimidin-4(1H)-one] | 2610 1/s per M
12 | COc1ccc(-c2cc(=O)[nH]c(=S)n2CCCN)cc1OC [Example 82, 1-(3-aminopropyl)-6-(3,4-dimethoxyphenyl)-2-thioxo-2,3-dihydropyrimidin-4(1H)-one hydrochloride] | 3390 1/s per M
13 | COc1ccc(-c2cc(=O)[nH]c(=S)n2C[C@@H]2CCCNC2)c(OC)c1 [Example 151, 6-(2,4-dimethoxyphenyl)-1-[(3R)-piperidin-3-ylmethyl]-2-thioxo-2,3-dihydropyrimidin-4(1H)-one hydrochloride] | 3740 1/s per M
14 | COc1ccc(-c2cc(=O)[nH]c(=S)n2CC2CNCCO2)c(OC)c1 (stereo not drawn) [Example 238, 6-(2,4-dimethoxyphenyl)-1-(morpholin-2-ylmethyl)-2-thioxo-2,3-dihydropyrimidin-4(1H)-one hydrochloride] | 8740 1/s per M

Next, values leading:

Row | MPO kinact/Ki | Structure (SMILES)
15 | 8480 1/s per M | COc1ccc(F)cc1-c1cc(=O)[nH]c(=S)n1CC(N)=O [Example 59, 2-[6-(5-fluoro-2-methoxyphenyl)-4-oxo-2-thioxo-3,4-dihydropyrimidin-1(2H)-yl]acetamide]
16 | 2340 1/s per M | O=c1cc(-c2cccc3c2OCCO3)n(CCO)c(=S)[nH]1 [Example 47, 6-(2,3-dihydro-1,4-benzodioxin-5-yl)-1-(2-hydroxyethyl)-2-thioxo-2,3-dihydropyrimidin-4(1H)-one]
17 | 7740 1/s per M | COCCn1c(-c2ccccc2SC)cc(=O)[nH]c1=S [Example 55, 1-(2-methoxyethyl)-6-[2-(methylthio)phenyl]-2-thioxo-2,3-dihydropyrimidin-4(1H)-one]
18 | 11700 1/s per M | COc1ccc(F)cc1-c1cc(=O)[nH]c(=S)n1CCCN [Example 58, 1-(3-aminopropyl)-6-(5-fluoro-2-methoxyphenyl)-2-thioxo-2,3-dihydropyrimidin-4(1H)-one hydrochloride]
19 | 2450 1/s per M | COCCn1c(-c2cccc(C#N)c2)cc(=O)[nH]c1=S [Example 291, 3-[3-(2-methoxyethyl)-6-oxo-2-thioxo-1,2,3,6-tetrahydropyrimidin-4-yl]benzonitrile]
20 | 8280 1/s per M | COc1ccccc1-c1cc(=O)[nH]c(=S)n1CCCN [Example 18, 1-(3-aminopropyl)-6-(2-methoxyphenyl)-2-thioxo-2,3-dihydropyrimidin-4(1H)-one hydrochloride]
21 | 3060 1/s per M | COCCn1c(-c2ccc(OC)cc2F)cc(=O)[nH]c1=S [Example 316, 6-(2-fluoro-4-methoxyphenyl)-1-(2-methoxyethyl)-2-thioxo-2,3-dihydropyrimidin-4(1H)-one]
22 | 11100 1/s per M | COc1ccc(-c2cc(=O)[nH]c(=S)n2CCCN)c(OC)c1 [Example 178, 1-(3-aminopropyl)-6-(2,4-dimethoxyphenyl)-2-thioxo-2,3-dihydropyrimidin-4(1H)-one formate]
23 | 7810 1/s per M | COCCn1c(-c2cccc3ccccc23)cc(=O)[nH]c1=S [Example 319, 1-(2-methoxyethyl)-6-(1-naphthyl)-2-thioxo-2,3-dihydropyrimidin-4(1H)-one]

same assay, conditions: Table 1A, 2 μM H2O2, pH 7.4

Row | Structure (SMILES) | MPO kinact/Ki
24 | NCCNC(=O)Cn1c(-c2cc(F)ccc2OCCO)cc(=O)[nH]c1=S [Example 405, N-(2-aminoethyl)-2-{6-[5-fluoro-2-(2-hydroxyethoxy)phenyl]-4-oxo-2-thioxo-3,4-dihydropyrimidin-1(2H)-yl}acetamide] | 5970 1/s per M
25 | COc1ccc(-c2cc(=O)[nH]c(=S)n2CC(=O)N[C@H]2C[C@H](N)C2)c(OC)c1 [Example 437, N-(trans-3-aminocyclobutyl)-2-[6-(2,4-dimethoxyphenyl)-4-oxo-2-thioxo-3,4-dihydropyrimidin-1(2H)-yl]acetamide] | 3400 1/s per M
26 | NCCNC(=O)Cn1c(-c2ccccc2OCCO)cc(=O)[nH]c1=S [Example 428, N-(2-aminoethyl)-2-{6-[2-(2-hydroxyethoxy)phenyl]-4-oxo-2-thioxo-3,4-dihydropyrimidin-1(2H)-yl}acetamide] | 5890 1/s per M
27 | COc1ccc(-c2cc(=O)[nH]c(=S)n2CC(=O)NCCNCC2CC2)c(OC)c1 [Example 445, N-{2-[(cyclopropylmethyl)amino]ethyl}-2-[6-(2,4-dimethoxyphenyl)-4-oxo-2-thioxo-3,4-dihydropyrimidin-1(2H)-yl]acetamide] | 7350 1/s per M
28 | CNCCNC(=O)Cn1c(-c2ccc(OC)cc2OC)cc(=O)[nH]c1=S [Example 391, 2-[6-(2,4-dimethoxyphenyl)-4-oxo-2-thioxo-3,4-dihydropyrimidin-1(2H)-yl]-N-[2-(methylamino)ethyl]acetamide] | 3480 1/s per M
29 | COc1ccc(-c2cc(=O)[nH]c(=S)n2CC(=O)N2CCNCC2)c(OC)c1 [Example 397, 6-(2,4-dimethoxyphenyl)-1-[2-oxo-2-(piperazin-1-yl)ethyl]-2-thioxo-2,3-dihydropyrimidin-4(1H)-one] | 4050 1/s per M
30 | COc1ccc(-c2cc(=O)[nH]c(=S)n2CCNCCN)c(OC)c1 [Example 381, 1-{2-[(2-aminoethyl)amino]ethyl}-6-(2,4-dimethoxyphenyl)-2-thioxo-2,3-dihydropyrimidin-4(1H)-one] | 1970 1/s per M

Results, then the molecule that gave them:

Row | MPO kinact/Ki | Structure (SMILES)
31 | 2690 1/s per M | NCCn1c(-c2cccc3ncsc23)cc(=O)[nH]c1=S [Example 362, 1-(2-aminoethyl)-6-(1,3-benzothiazol-7-yl)-2-thioxo-2,3-dihydropyrimidin-4(1H)-one]
32 | 3980 1/s per M | NC(=O)Cn1c(-c2cc(F)ccc2OCCO)cc(=O)[nH]c1=S [Example 412, 2-{6-[5-fluoro-2-(2-hydroxyethoxy)phenyl]-4-oxo-2-thioxo-3,4-dihydropyrimidin-1(2H)-yl}acetamide]
33 | 3270 1/s per M | NC(=O)Cn1c(-c2ccccc2O)cc(=O)[nH]c1=S [Example 368, 2-[6-(2-hydroxyphenyl)-4-oxo-2-thioxo-3,4-dihydropyrimidin-1(2H)-yl]acetamide]
